Here are results for 4 compounds from article PMC11744769, “Modulation of the mechanism of action of antibacterial silver N-heterocyclic carbene complexes by variation of the halide ligand” (RSC Advances, 2025).

T1 sequence (P0A9P4 2-321): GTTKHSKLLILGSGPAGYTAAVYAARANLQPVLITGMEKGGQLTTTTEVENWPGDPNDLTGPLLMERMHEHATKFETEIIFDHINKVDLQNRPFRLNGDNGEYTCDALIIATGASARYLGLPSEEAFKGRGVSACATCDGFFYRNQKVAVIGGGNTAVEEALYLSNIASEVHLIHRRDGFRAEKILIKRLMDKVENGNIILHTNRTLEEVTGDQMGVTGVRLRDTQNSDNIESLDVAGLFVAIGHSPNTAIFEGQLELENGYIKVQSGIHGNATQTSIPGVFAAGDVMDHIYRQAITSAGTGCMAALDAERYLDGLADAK

This test addresses T1, thioredoxin reductase (TrxR) (Escherichia coli, UniProt P0A9P4).
T1 construct: gene trxB
Description: DTNB reduction kinetic assay with Trx and NADPH in lysates of treated E. coli DSM […] cells. Format: cell-based.
For the compound `CC(C)n1[c]([Ag-][Cl])[n+](Cc2ccccn2)c2ccccc21` [1-Cl], the IC50 was roughly 11 µM.

Regarding `CC(C)n1[c]([Ag-][I])[n+](Cc2ccccn2)c2ccccc21` [1-I], the IC50 is roughly 6 µM.

`COCCn1[c]([Ag-][Cl])[n+](Cc2ccccn2)c2ccccc21` [2-Cl] returned an IC50 of roughly 11 µM.

In turn, `COCCn1[c]([Ag-][I])[n+](Cc2ccccn2)c2ccccc21` [2-I] registered an IC50 of roughly 6 µM.

As usually defined, the IC50 is the point on the concentration scale where inhibition reaches its midpoint.
